Laboratory results: patent US10766889B2, “Aryl-2,2′-tandem bisthiazole compound and preparation method and use thereof” (SHANGHAI INSTITUTE OF MATERIA MEDICA, CHINESE ACADEMY OF …, priority 2016, dated 2020)
Read-outs that look alike come from different tables or passages of the source. One block for each compound: values may come before it.

Key:
[1] = system: Lung Cancer A549; assay: Tumor cell proliferation inhibition, SRB; type: cell-based; settings: Homo sapiens, 72 h, read-out: IC50 (mean ± SD) Lung Cancer A549
Procedure: The antitumor activity test of the example compounds was carried out, and the in vitro antitumor activities of the compounds were evaluated by measuring the growth inhibitory activities of the compounds against a plurality of human tumor cell lines.
Tumor cells (except MDA-MB-231) were routinely cultured under 37° C., 5% CO2.
According to the cell growth rate, the tumor cells in the logarithmic growth phase were inoculated into 96-well culture plates at 90 μL/well, and adherently grown for 24 h and then added with 10 μL/well, and each concentration was set to three replicate wells, and DMSO vehicle controls and cell-free wells at corresponding concentration were also set. Tumor cells (except MDA-MB-231) were cultured for 72 h under conditions of 37° C. and 5% CO2 (MDA-MB-231 cells were cultured at 37° C. without CO2). […] The OD value at 450 nm was measured by a microplate reader. […] After dried by convert placing in an oven, 150 μL of 10 mM Tris solution was added into each well, and the OD value at 560 nm was measured by a microplate reader.
The inhibition rate of tumor cell proliferation was calculated according to the following formula. The half-inhibition amount IC50 value was calculated by Log it method. […]

[2] = system: Lung Cancer EBC-1; assay: Tumor cell proliferation inhibition, SRB; type: cell-based; settings: Homo sapiens, EBC-1, 72 h, read-out: IC50 (mean ± SD) Lung Cancer EBC-1
[3] = system: human multiple myeloma cell line RPMI 8226; assay: Cell level anti-tumor activity test, CCK-8, multiple myeloma cells; type: cell-based; settings: RPMI-8226, 72 h
Procedure: According to the cell growth rate, the multiple myeloma cells in the logarithmic growth phase were inoculated into the 96-well culture plate at 100 μL/well, and then 1 μL/well of compound solution was added, and three replicate wells were set for each concentration, and the DMSO solvent control at corresponding concentration was also set.
CCK-8 staining method: after the drug was applied, 10 μL of CCK-8 solution was added to each well, and incubated at 37° C. for 3 h. The OD value at 450 nm and 690 nm was measured by microplate reader.
The inhibition rate (% Inhibiton) and activity (% Activity) of the test substance on the proliferation of multiple myeloma cells were calculated according to the following formula, wherein ODsample refers to the absorbance value of the administration hole (OD450-OD690). OD DMSO refers to the absorbance of the DMSO control well (OD450-OD690).
The logarithm of the concentration was plotted against the activity percentage (% Activity), and the fitted curve was calculated by nonlinear regression. The value of IC50 was calculated by using the GraphPad Prism5 software log(inhibitor) vs response—Variable slope parameter setting. Each set of experiments was repeated three times independently, while 3 replicate wells per concentration.

[4] = system: human myeloma RPMI 8226 NOD/SCID mouse xenografts; assay: Pharmacological experiment in human myeloma RPMI 8226 NOD/SCID mouse transplantation model; type: in vivo
Excerpt: The efficacy of compound H08 in an animal model of human multiple myeloma was investigated.
NOD/SCID mice, female, 5-6 weeks old, body weight 20±3 g, provided by Shanghai Lingchang Biotechnology Co., Ltd., production certificate number: SCXK (Shanghai) 2013-0018. Number of animals per group: 6. IACUC number: 2013-0007 (Nanmo).
Human myeloma RPMI 8226 cell line was preserved by Li Jia et al., Shanghai Institute of Materia Medica. The cell line was inoculated to the right axillary fossa of NOD/SCID mice, and the amount of cells inoculated was 1×10^7 cells each mouse. After the transplanted tumor was formed, it was used in NOD/SCID mice after 2 passages.
The tumor tissue in the vigorous growth period was cut into 1.5 mm^3, and inoculated subcutaneously in the right axilla of the NOD/SCID mice under aseptic conditions. The diameter of the transplanted tumor of NOD/SCID mice were measured with a vernier caliper and the animals were randomly grouped when the tumor growed up to 100-300 mm^3. The grouping scheme is shown in Table 5, and the solvent control group was given an equal amount of blank solvent. The diameter of the transplanted tumor was measured twice a week during the entire experiment, and the body weight of the mice was weighed as well. The tumor volume (TV) was calculated as: TV=½×a×b^2, wherein a and b represent length and width, respectively. The relative tumor volume (RTV) was calculated based on the measured results and the formula was: RTV=Vt/V0. Wherein V0 is the tumor volume measured before grouping and dosing (d0), and Vt is the tumor volume at each measurement.

[5] = Preliminary metabolic experiments, oral bioavailability in mice; settings: mouse, in vivo
[6] = background, subsequent studies on 201410136196.7 compounds; cited from earlier work
[7] = target: T1, human HDAC1 (Homo sapiens, UniProt Q13547); assay: Inhibition activity test of histone deacetylase 1 (fluorescence, Ac-Lys-Tyr-Lys(Ac)-AMC substrate); type: biochemical; settings: mean of 3 experiments
T1 construct: made in house
T1 sequence (Q13547 whole entry): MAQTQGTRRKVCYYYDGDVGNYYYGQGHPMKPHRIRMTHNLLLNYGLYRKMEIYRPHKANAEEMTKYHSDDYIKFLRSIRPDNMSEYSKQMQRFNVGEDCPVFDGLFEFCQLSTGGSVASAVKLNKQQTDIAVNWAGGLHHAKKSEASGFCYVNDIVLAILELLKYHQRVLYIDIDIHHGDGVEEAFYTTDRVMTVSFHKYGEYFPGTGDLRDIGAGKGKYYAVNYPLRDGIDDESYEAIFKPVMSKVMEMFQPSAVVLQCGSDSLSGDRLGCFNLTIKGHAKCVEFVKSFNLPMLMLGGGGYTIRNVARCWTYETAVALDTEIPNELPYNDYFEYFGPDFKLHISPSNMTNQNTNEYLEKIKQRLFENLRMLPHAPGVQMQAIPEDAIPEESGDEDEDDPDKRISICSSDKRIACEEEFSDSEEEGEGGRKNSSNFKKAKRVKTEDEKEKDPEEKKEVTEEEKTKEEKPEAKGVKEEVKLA
Procedure: (§1) The inhibitory activity of the example compounds against human histone deacetylases 1, 3 and 6 (i.e., human HDAC1, HDAC3 and HDAC6) was tested.
(§2) Substrates: HDAC1, HDAC 3: Ac-Lys-Tyr-Lys (Ac)-AMC; HDAC6: Boc-lys (Ac)-AMC; all purchased from Shanghai Jill Biochemical Co., Ltd.
(§3) The activity of HDAC1 and HDAC3 was detected using Ac-Lys-Tyr-Lys(Ac)-AMC as substrate, and the activity of HDAC6 was detected using Boc-Lys(Ac)-AMC as substrate, and both were detected by fluorescence detection. […] The initial velocity of the reaction is calculated by detecting the change in the fluorescence signal over time.
(§4) The test compound, enzyme and reaction buffer were well mixed and the substrate was added to start the reaction. […]
(§5) The fluorescence signal intensity at 460 nm was measured, and then the activity percentage (% Activity) of each concentration groups of the sample was calculated. […]
(§6) The logarithm of the concentration was plotted against the percentage of activity, and then the nonlinear regression was used to calculate the fit curve. The value of IC50 was calculated by the software GraphPad Prism 5 formula log(inhibitor) vs. response—Variable slope.
(§7) Each of the above experiments was repeated 3 times, and there were more than 3 replicate wells for each experiment. The average IC50 value of the three experiments was determined as the final indicator of the compound inhibition ability.

[8] = target: T2, human HDAC3 (Homo sapiens, UniProt O15379); assay: Inhibition activity test of histone deacetylase 3 (fluorescence, Ac-Lys-Tyr-Lys(Ac)-AMC substrate); type: biochemical; settings: mean of 3 experiments
T2 construct: made in house
T2 sequence (O15379 whole entry): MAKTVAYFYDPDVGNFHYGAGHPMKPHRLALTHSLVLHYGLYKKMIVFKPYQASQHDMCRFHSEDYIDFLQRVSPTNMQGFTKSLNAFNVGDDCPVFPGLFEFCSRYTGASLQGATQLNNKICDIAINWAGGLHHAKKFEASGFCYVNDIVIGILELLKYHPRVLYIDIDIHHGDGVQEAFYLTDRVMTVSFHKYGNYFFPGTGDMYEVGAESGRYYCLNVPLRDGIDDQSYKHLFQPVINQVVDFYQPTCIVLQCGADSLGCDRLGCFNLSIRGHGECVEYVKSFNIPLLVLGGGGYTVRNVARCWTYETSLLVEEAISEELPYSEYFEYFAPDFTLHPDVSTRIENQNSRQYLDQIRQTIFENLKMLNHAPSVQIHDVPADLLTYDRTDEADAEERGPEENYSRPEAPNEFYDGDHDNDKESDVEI
Procedure: as §1, §2, §3, §4, §5, §6, §7

[9] = target: T3, human HDAC6 (Homo sapiens, UniProt Q9UBN7); assay: Inhibition activity test of histone deacetylase 6 (fluorescence, Boc-Lys(Ac)-AMC substrate); type: biochemical; settings: mean of 3 experiments
T3 construct: made in house
T3 sequence (Q9UBN7 1-1215): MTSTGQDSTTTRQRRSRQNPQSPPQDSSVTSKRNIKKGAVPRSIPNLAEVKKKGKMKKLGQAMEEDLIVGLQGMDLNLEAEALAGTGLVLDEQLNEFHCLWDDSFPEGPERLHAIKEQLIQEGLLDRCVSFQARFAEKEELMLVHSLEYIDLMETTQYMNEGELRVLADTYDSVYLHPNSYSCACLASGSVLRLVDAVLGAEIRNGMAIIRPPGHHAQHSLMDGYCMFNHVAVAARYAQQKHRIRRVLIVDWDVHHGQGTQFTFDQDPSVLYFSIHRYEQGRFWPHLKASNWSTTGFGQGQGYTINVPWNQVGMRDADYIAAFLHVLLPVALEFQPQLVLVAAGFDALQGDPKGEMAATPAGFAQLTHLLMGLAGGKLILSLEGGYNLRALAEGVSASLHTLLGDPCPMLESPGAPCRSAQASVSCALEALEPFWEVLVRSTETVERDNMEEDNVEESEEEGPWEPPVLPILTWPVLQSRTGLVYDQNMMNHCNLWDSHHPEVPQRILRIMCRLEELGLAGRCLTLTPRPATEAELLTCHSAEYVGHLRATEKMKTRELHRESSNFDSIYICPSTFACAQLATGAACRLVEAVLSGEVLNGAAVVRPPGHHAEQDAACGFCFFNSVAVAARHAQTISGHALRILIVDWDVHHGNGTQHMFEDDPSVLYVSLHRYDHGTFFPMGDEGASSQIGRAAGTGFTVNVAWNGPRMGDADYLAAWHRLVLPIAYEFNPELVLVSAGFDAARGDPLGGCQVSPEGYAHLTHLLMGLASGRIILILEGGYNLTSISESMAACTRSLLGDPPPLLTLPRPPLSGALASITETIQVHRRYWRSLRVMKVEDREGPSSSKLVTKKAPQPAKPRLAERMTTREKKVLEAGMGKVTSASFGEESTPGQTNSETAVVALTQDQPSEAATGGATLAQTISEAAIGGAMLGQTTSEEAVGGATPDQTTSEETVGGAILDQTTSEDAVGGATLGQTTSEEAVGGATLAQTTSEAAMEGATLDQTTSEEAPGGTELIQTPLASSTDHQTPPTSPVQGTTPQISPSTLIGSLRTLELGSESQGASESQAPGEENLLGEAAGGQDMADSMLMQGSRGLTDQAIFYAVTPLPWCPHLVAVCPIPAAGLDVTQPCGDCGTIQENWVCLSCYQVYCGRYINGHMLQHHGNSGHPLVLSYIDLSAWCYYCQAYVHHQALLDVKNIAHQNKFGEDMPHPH
Procedure: as §1, §2, §3, §4, §5, §6, §7

[10] = system: tumor cell; settings: WO2012152208, background; read-out: IC50 tumor cell proliferation inhibitory activity; cited from earlier work
[11] = system: Liver cancer BEL-7404; assay: Tumor cell proliferation inhibition, SRB; type: cell-based; settings: Homo sapiens, 72 h, read-out: IC50 (mean ± SD) Liver cancer BEL-7404
Procedure: (§8) After the drug was applied, 10 μL of CCK-8 solution was added to each well in Ramos, HL-60, Molt-4, Raji, CCRF-CEM, and SU-DHL-6 tumor cell line experiments, and incubated at 37° C. for 2 h. The OD value at 450 nm was measured by a microplate reader. […] After dried by convert placing in an oven, the plate was taken out and 100 μL of SRB solution (4 mg/mL SRB powder dissolved in 1% glacial acetic acid) was added into each well. After standed at room temperature for 15 minutes, it was washed five times with 1% glacial acetic acid to completely remove the SRB which has not bounded to the plate protein. After dried by convert placing in an oven, 150 μL of 10 mM Tris solution was added into each well, and the OD value at 560 nm was measured by a microplate reader.
(§9) The inhibition rate of tumor cell proliferation was calculated according to the following formula. The half-inhibition amount IC50 value was calculated by Log it method. Inhibition rate=(control group OD value−administration group OD value)/control group OD value×100%. Each set of experiments was repeated three times independently, while 3 replicate wells per concentration.

[12] = system: stomach cancer MKN-74; assay: Tumor cell proliferation inhibition, SRB; type: cell-based; settings: Homo sapiens, 72 h, read-out: IC50 (mean ± SD) stomach cancer MKN-74
Procedure: as §8, §9

[13] = system: Embryonic lung cells MRC-5; assay: Cell proliferation inhibition, SRB; type: cell-based; settings: Homo sapiens, MRC5, 72 h, read-out: IC50 (mean ± SD) Embryonic lung cells MRC-5
Procedure: as §8, §9

[14] = system: lymphoma Ramos; assay: Tumor cell proliferation inhibition, CCK-8; type: cell-based; settings: Homo sapiens, 72 h, read-out: IC50 (mean ± SD) lymphoma Ramos
Procedure: as §8, §9

[15] = system: promyeloid leukemia HL60; assay: Tumor cell proliferation inhibition, CCK-8; type: cell-based; settings: Homo sapiens, HL-60, 72 h, read-out: IC50 (mean ± SD) promyeloid leukemia HL60
Procedure: as §8, §9

[16] = system: Acute lymphoblastic leukemia MOLT-4; assay: Tumor cell proliferation inhibition, CCK-8; type: cell-based; settings: Homo sapiens, 72 h, read-out: IC50 (mean ± SD) Acute lymphoblastic leukemia MOLT-4
Procedure: as §8, §9

[17] = system: Human blood lymphoma Raji; assay: Tumor cell proliferation inhibition, CCK-8; type: cell-based; settings: 72 h, read-out: IC50 (mean ± SD) Human blood lymphoma Raji
Procedure: as §8, §9

[18] = system: Acute lymphocytic leukemia T lymphocyte CCRF; assay: Tumor cell proliferation inhibition, CCK-8; type: cell-based; settings: Homo sapiens, 72 h, read-out: IC50 (mean ± SD) Acute lymphocytic leukemia T lymphocyte CCRF
Procedure: as §8, §9

[19] = read-out: IC50 (growth inhibition, RPMI 8226)
[20] = read-out: IC50 (proliferation of RPMI 8226)
[21] = 25 mg/kg, p.o., once/day, 3 weeks
[22] = 25 mg/kg, p.o., once/day, 3 weeks, d21
[23] = 50 mg/kg, p.o., once/day, 3 weeks
[24] = 50 mg/kg, p.o., once/day, 3 weeks, d21
[25] = 1 mg/kg, i.v., twice/week for 3 weeks
[26] = 1 mg/kg, i.v., twice/week for 3 weeks, d21
[27] = 100 mg/kg bid, p.o., 3 weeks, d21

SMILES: O=C(CCCCCCC(=O)Nc1ccccc1)NO [SAHA, vorinostat]
IC50 [1]: 2910 ± 678 nM
IC50 [2]: 1550 ± 474 nM

IC50 [3, 19]: 18 ± 6 nM
SMILES: C[C@H](NC(=O)c1nc(-c2ncc(-c3ccc(F)cc3)s2)sc1C1CC1)c1ccc(C(=O)NO)cc1 [Compound H09]

IC50 [3, 19]: 182 ± 15 nM
SMILES: CC(NC(=O)c1nc(-c2nccs2)sc1C1CC1)c1ccc(C(=O)NO)cc1 (stereo not shown) [Compound H01]

IC50 [3, 19]: 12 ± 4 nM
SMILES: COc1ccc(-c2cnc(-c3nc(C(=O)N[C@@H](C)c4ccc(C(=O)NO)cc4)c(C4CC4)s3)s2)cc1 [Compound H10]

IC50 [3, 19]: 8 nM
IC50 [3, 20]: ~8 nM
bioavailability [5]: 34.4%
SMILES: C[C@H](NC(=O)c1nc(-c2ncc(-c3ccccc3)s2)sc1C1CC1)c1ccc(C(=O)NO)cc1 [Compound H08]
TV d0 (average ± SD) [4, 21]: 154 ± 44 mm^3
body weight d0 [4, 21]: 22.1 ± 1.3 g
RTV (Average ± SD) [4, 22]: 8.40 ± 1.35
TV d21 (average ± SD) [4, 22]: 1,279 ± 353 mm^3
body weight d21 [4, 22]: 23.7 ± 0.8 g
TV d0 (average ± SD) [4, 23]: 154 ± 45 mm^3
body weight d0 [4, 23]: 22.2 ± 1.1 g
RTV (Average ± SD) [4, 24]: 5.48 ± 2.99
TV d21 (average ± SD) [4, 24]: 821 ± 406 mm^3
body weight d21 [4, 24]: 22.7 ± 0.9 g
change in body weight of the mice during the experiment ([4]; oral 50 mg/kg for three weeks): no change in body weight

IC50 [3, 19]: 123 ± 43 nM
SMILES: Cc1cnc(-c2nc(C(=O)N[C@@H](C)c3ccc(C(=O)NO)cc3)c(C3CC3)s2)s1 [Compound H05]

SMILES: O=C(NCCC(=O)C(F)(F)F)c1nc(-c2nccs2)sc1C1CC1 [GCJ403]
oral bioavailability [6]: 14.7%

IC50 [3, 19]: 28 ± 10 nM
SMILES: C[C@H](NC(=O)c1nc(-c2nccs2)sc1C1CC1)c1ccc(C(=O)NO)cc1 [Compound H02]

IC50 [7]: 6.71 ± 0.11 nM
IC50 [8]: 6.15 ± 0.25 nM
IC50 [9]: 9.78 ± 0.02 nM
IC50 [3, 19]: 8 nM
IC50 [3, 20]: ~8 nM
SMILES: O=C(NO)c1ccc(CNC(=O)c2nc(-c3ncc(-c4ccccc4)s3)sc2C2CC2)cc1 [Compound H12]

IC50 [3, 19]: 326 ± 18 nM
SMILES: C[C@@H](NC(=O)c1nc(-c2ncc(-c3ccccc3)s2)sc1C1CC1)c1ccc(C(=O)NO)cc1 [Compound H11]

IC50 [3, 19]: 139 ± 19 nM
SMILES: C[C@H](NC(=O)c1nc(-c2nc3c(s2)CCCC3)sc1C1CC1)c1ccc(C(=O)NO)cc1 [Compound H07]

SMILES: CC(C)C[C@H](NC(=O)[C@H](Cc1ccccc1)NC(=O)c1cnccn1)B(O)O [PS341, Bortezomib, reference compound]
TV d0 (average ± SD) [4, 25]: 155 ± 48 mm^3
body weight d0 [4, 25]: 21.9 ± 1.0 g
RTV (Average ± SD) [4, 26]: 7.19 ± 3.58
T/C relative tumor growth rate [4, 26]: 45.27%
TV d21 (average ± SD) [4, 26]: 1,077 ± 538 mm^3
body weight d21 [4, 26]: 23.3 ± 1.7 g

IC50 [3, 19]: 690 ± 410 nM
SMILES: O=C(CCNC(=O)c1nc(-c2nccs2)sc1C1CC1)NO [bexanostat, reference compound]
TV d0 (average ± SD) ([4]; 100 mg/kg bid, p.o., 3 weeks): 155 ± 46 mm^3
body weight d0 ([4]; 100 mg/kg bid, p.o., 3 weeks): 22.2 ± 1.4 g
RTV (Average ± SD) [4, 27]: 4.83 ± 0.51
TV d21 (average ± SD) [4, 27]: 620 ± 87 mm^3
body weight d21 [4, 27]: 19.8 ± 1.0 g
IC50 [10]: < 400 nM

IC50 [3, 19]: 50 ± 22 nM
SMILES: Cc1csc(-c2nc(C(=O)N[C@@H](C)c3ccc(C(=O)NO)cc3)c(C3CC3)s2)n1 [Compound H06]

IC50 [11]: 18.6 ± 1.51 nM
IC50 [1]: 48.9 ± 7.01 nM
IC50 [12]: 29.2 ± 0.97 nM
IC50 [14]: 7.14 ± 0.42 nM
IC50 [15]: 12.3 ± 0.24 nM
IC50 [16]: 15 ± 8.18 nM
IC50 [17]: 12.3 ± 1.61 nM
IC50 [18]: 13.7 ± 0.93 nM
SMILES: Cc1[nH]c2ccccc2c1CCNCc1ccc(/C=C/C(=O)NO)cc1 [LBH589, panobinostat]
IC50 [13]: 76.9 ± 7.22 nM
